Data as given in article PMC7330483, “Identification of a Broad-Spectrum Viral Inhibitor Targeting a Novel Allosteric Site in the RNA-Dependent RNA Polymerases of Dengue Virus and Norovirus” (Frontiers in Microbiology, 2020).
Entries after “also recorded” stand apart in the source; their conditions may differ.

Tests used:
DENV RdRp [1] = target: T1, DENV RdRp (Dengue virus type 3, UniProt Q6YMS4); assay: DENV-RdRp inhibition assay (PicoGreen dsRNA formation); assay type: biochemical; set-up: RdRp gens of DENV; inferred from Ni-NTA purification and the pET-21a(+) vector); made in house; host or cells: Escherichia coli BL21; settings: 40 μM compound
Method: Polymerase activity was measured by detecting the formation of double-stranded RNA (dsRNA) using the fluorescent dye PicoGreen ([Singer et al., 1997]). RdRp assays were performed in a black 96-well plates, which protects reaction mixture from light. In vitro RNA synthesis assays were performed using a single-stranded RNA poly(C) as template and GTP as substrate in a 25 μL reaction mixture. 5 μL of DENV-RdRp (20 μM), dissolved in a reaction buffer containing 20 mM Tris–HCl (pH 7.4), 2.5 mM MnCl2, 5 mM DTT, was incubated with 1 μL of 1 mM compound (RAI-5, RAI-13, RAI-14, and JF-31-MG46 served as positive control) or the compound vehicle DMSO at 30°C for 10 min. Subsequently, 1 μL of 1 mg/mL poly(C) and 2 μL of 625 μM GTP were added into the mixture for 60 min at 30°C. The final concentrations of the reaction components are 4 μM DENV-RdRp, […], 50 μM GTP, 40 μM compound, 4% DMSO, […] (pH 7.4), 2.5 mM MnCl2 and 5 mM DTT. The reaction was terminated with 10 mM EDTA. After that, 175 μL of fluorescent dye PicoGreen, diluted 200-fold with TE buffer, was added to each well for 5 min at room temperature. Microplate reader was used to quantify the amount of dsRNA at standard wavelengths (excitation 480 nm, emission 520 nm).

hNV-RdRp = hNV-RdRp inhibition assay (PicoGreen dsRNA formation); assay type: biochemical, Norovirus GII.4 Sydney 2012; settings: dose response, two-fold dilutions
DENV RdRp [2] = target: DENV RdRp; set-up: method as in Noble et al., 2016; settings: ref Noble et al., 2016; read-out: KD DENV RdRp (literature); cited from earlier work
MNV(SH1603) = assay: Infection assay with MNV in RAW264.7 cells (qRT-PCR); assay type: cell-based, murine norovirus (MNV)
Jc1-Gluc HCVcc = assay: Infection assay with Jc-1-Gluc HCVcc in Huh7.5.1 cells; assay type: cell-based, hepatitis C virus (HCV); settings: Hepatitis C virus
Method: 2 × 10^4 per well Huh7.5.1 cells were seeded into 96-well plates for 24 h, and then cells were incubated with RAI-13 (1 μM) and Jc1-Gluc HCVcc at an MOI of 1 for 4 h. Next, the culture supernatants were replaced by Fresh medium with 1 μM RAI-13. After 48 h, we measured the amounts of infectious Jc1 HCVcc in the supernatant by detecting the activity of Gaussia luciferase (Gluc), using a Centro XS3 LB 960 luminometer.

A549 cells = assay: Cytotoxicity analysis (Cell Counting kit-8), A549; assay type: cell-based; settings: up to 10 μM, 48 h, CCK-8
Method: (§1) Twenty-four hour prior to the cytotoxicity assay, 4 × 10^4 RAW264.7 or A549 cells were seeded in 96-well plates. After that, 2-fold serial dilutions (from 0.625 to 40 μM) of RAI-13 were added to the cells. Cells treated with DMSO were served as the control. Cells were cultivated for 48 h, after that the cell viability was assessed by Cell Counting kit-8.

[3] = Cytotoxicity analysis (Cell Counting kit-8), A549; assay type: cell-based; settings: human, A549 cells, CCK-8
Method: as §1

[4] = test system: Gaussia luciferase (Gluc); assay: Effect on Gluc activity in pcDNA-Gluc transfected Huh7.5.1 cells (negative control); assay type: cell-based; settings: concentrations up to 5 μM, 48 h
DENV RdRp [5] = target: T1, DENV RdRp; assay: Bio-layer interferometry (BLI) binding assay, DENV RdRp
DENV2 (Tr1751) = assay: Infection assay with DENV2 in A549 cells (qRT-PCR); assay type: cell-based
Method: 5 × 10^5 per well A549 cells were seeded into 6-well plates for 24 h, and infected with DENV2 (Tr1751) at an MOI of 0.1 in the presence of RAI-13 with 2-fold dilutions (from 0.08 to 20 μM) for 4 h. The culture supernatants were replaced by Fresh medium with RAI-13 with 2-fold dilutions. Cells were harvested at 48 h.p.i. The RNA extraction kit was used to extract total RNA. The level of viral RNA was determined by qRT-PCR analysis through one-step SYBR PrimeScript RT-PCR kit ([Yi et al., 2019]). The primer pair (forward: 5′-[…]-3′ and reverse: 5′-[…]-3′) amplifies partial envelop protein E gene of DENV2. The Forward and Reverse primers were also, respectively, used for minus-strand and plus-strand RNA reverse transcription. Human glyceraldehyde-3-phosphate dehydrogenase (hGAPDH) was served as an internal control and amplified with primers 5′-ATCA[…]-3′ and 5′-[…]-3′.

VSV-G/HIV-Fluc = assay type: cell-based, human immunodeficiency viruses type 1 (HIV-1)
[6] = Cytotoxicity analysis (Cell Counting kit-8), RAW264.7; assay type: cell-based; settings: mouse, RAW264.7 cells, CCK-8
Method: as §1

RAW264.7 cells = assay: as above; assay type: cell-based; settings: up to 10 μM, 48 h, CCK-8
Method: as §1

[7] = oral, rat; no reference given; cited from earlier work
hNV RdRp = assay: Bio-layer interferometry (BLI) binding assay, hNV RdRp; settings: read-out: KD hNV RdRp, 1:1 binding model, global fit

**Q.** Which “inhibitory effect on DENV RdRp activity” value (DENV RdRp [1]) does the source give for O=c1[nH]c2ccccc2n1C1CCN(Cc2ccc(-c3nc4cc5[nH]cnc5cc4nc3-c3ccccc3)cc2)CC1 [RAI-5, AKT inhibitor VIII] here?
**A.** The value was “no inhibitory effect”.

**Q.** And the IC50 (hNV-RdRp)?
**A.** The IC50 was 47.3 µM.

**Q.** Which results are given for Cc1ccc(NC(=O)Nc2cc(C(F)(F)F)ccc2F)cc1Nc1ccc2c(c1)NC(=O)/C2=C\c1ccc[nH]1 [RAI-14, GNF-5837]?
**A.** inhibitory effect on DENV RdRp activity (DENV RdRp [1]): no inhibitory effect; IC50 (hNV-RdRp): 45.5 µM

**Q.** Which Kd (DENV RdRp [2]) does the source give for COc1ccc(CC(=O)O)cc1-c1ccccc1 [JF-31-MG46, 2-(4-methoxy-3-phenyl-phenyl)ethanoic acid] here?
**A.** Its Kd is 210 µM.

**Q.** What does the source list for CN1CCN(c2ccc(C(=O)Nc3n[nH]c4ccc(Cc5cc(F)cc(F)c5)cc34)c(NC3CCOCC3)c2)CC1 [RAI-13, Entrectinib]?
**A.** plus-strand and minus-strand RNA levels of MNV (MNV(SH1603); 2.5 μM, infected RAW264.7 cells): inhibits the synthesis of both plus-strand and minus-strand RNA; IC50 (MNV(SH1603); Norwalk virus, RAW264.7, in abstract, read-out: IC50 inhibition of MNV infection (abstract)): 2010 nM; EC50 (MNV(SH1603); Norwalk virus, RAW264.7 cells, 48 h, MNV RNA by qRT-PCR, read-out: EC50 inhibition of MNV infection): 2010 nM; inhibitory effect on DENV RdRp activity (DENV RdRp [1]): markedly inhibited; inhibition at 1 µM (Jc1-Gluc HCVcc; Huh-7.5.1, 48 h, read-out: inhibition of Jc1 HCVcc infection): 95%; inhibition at 2 µM (Jc1-Gluc HCVcc; Huh-7.5.1, read-out: inhibition of HCV infection (abstract)): 95%; cytotoxic effect on A549 cells (A549 cells): No cytotoxic effect; also recorded: did not observe apparent cytotoxicity; CC50 at 48 h [3]: 20.8 µM; IC50 (hNV-RdRp): 46.9 µM; effect on Gluc activity [4]: no inhibitory effect; Kd (DENV RdRp [5]): 166 µM; plus-strand and minus-strand RNA levels of DENV2 (DENV2 (Tr1751); 2 μM, infected A549 cells): inhibits the synthesis of both plus-strand and minus-strand RNA; IC50 (DENV2 (Tr1751); Dengue virus, DENV2, A549, read-out: IC50 inhibition of DENV2 infection (abstract)): 2430 nM; EC50 (DENV2 (Tr1751); Dengue virus, A549 cells, 48 h, DENV2 RNA by qRT-PCR, read-out: EC50 inhibition of DENV2 infection): 2430 nM; inhibition of HIV-1 (VSV-G/HIV-Fluc) infection (VSV-G/HIV-Fluc): did not show any inhibition effect; CC50 at 48 h [6]: 13.2 µM; cytotoxic effect on RAW264.7 cells (RAW264.7 cells): No cytotoxic effect; also recorded: did not observe apparent cytotoxicity; LD50 [7]: above 2000 mg/kg; Kd (hNV RdRp): 39.9 µM
